Results: patent publication US20230295131A1, “INHIBITORS OF RHO-ASSOCIATED COILED-COIL KINASE” (Angion Biomedica Corp., priority 2020, published 2023)
Structures can show the parent of a compound that is named as a salt. Where two headings read alike, the source gives them in different places.

What was measured:
[1] = 12-16 weeks of dosing in healthy volunteers and patients; cited from earlier work
[2] = test system: fibroblasts; settings: fibroblasts treated with KD025; cited from earlier work
[3] = test system: murine autoimmune disease; settings: KD025 administration; cited from earlier work
[4] = test system: chronic hepatitis C infection; settings: cited from earlier work
[5] = test system: HCC; settings: HCC patients at advanced stage; cited from earlier work
[6] = target: T1, ROCK1 (Homo sapiens, UniProt Q13464); assay: ROCK1 kinase binding affinity, DiscoverX KINOMEscan KdELECT; settings: 11-point 3-fold dilution
T1 construct: T7 phage fusion (kinase-tagged phage) or DNA tag for qPCR detection
Summary of the method: (§1)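 Competition binding of DNA- or phage-tagged kinase to immobilised ligand beads, with bound kinase quantified by qPCR of eluates.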

[7] = target: T2, ROCK2 (Homo sapiens, UniProt O75116); assay: ROCK2 kinase binding affinity, DiscoverX KINOMEscan KdELECT; settings: for Kd: KINOMEscan KdELECT, 11-point 3-fold dilution, read-out: Kd (μM) ROCK2; for ROCK2 Selectivity: selectivity for ROCK2 over ROCK1 from Kd
T2 construct: T7 phage fusion (kinase-tagged phage) or DNA tag for qPCR detection
Summary of the method: as §1

[8] = test system: Hepatic stellate cells; assay: Gel contraction assay (TGFβ1-induced); format: cell-based; settings: test compound at 100 μM, 1 hour pretreatment, TGFβ1 24 hours
Description: Hepatic stellate cells were plated onto collagen coated plates and pretreated with test compound (at 100 μM) for 1 hour. TGFβ1 is then added for 24 hours, and images are taken.

T2 sequence (O75116 whole entry, the tested form may be a part): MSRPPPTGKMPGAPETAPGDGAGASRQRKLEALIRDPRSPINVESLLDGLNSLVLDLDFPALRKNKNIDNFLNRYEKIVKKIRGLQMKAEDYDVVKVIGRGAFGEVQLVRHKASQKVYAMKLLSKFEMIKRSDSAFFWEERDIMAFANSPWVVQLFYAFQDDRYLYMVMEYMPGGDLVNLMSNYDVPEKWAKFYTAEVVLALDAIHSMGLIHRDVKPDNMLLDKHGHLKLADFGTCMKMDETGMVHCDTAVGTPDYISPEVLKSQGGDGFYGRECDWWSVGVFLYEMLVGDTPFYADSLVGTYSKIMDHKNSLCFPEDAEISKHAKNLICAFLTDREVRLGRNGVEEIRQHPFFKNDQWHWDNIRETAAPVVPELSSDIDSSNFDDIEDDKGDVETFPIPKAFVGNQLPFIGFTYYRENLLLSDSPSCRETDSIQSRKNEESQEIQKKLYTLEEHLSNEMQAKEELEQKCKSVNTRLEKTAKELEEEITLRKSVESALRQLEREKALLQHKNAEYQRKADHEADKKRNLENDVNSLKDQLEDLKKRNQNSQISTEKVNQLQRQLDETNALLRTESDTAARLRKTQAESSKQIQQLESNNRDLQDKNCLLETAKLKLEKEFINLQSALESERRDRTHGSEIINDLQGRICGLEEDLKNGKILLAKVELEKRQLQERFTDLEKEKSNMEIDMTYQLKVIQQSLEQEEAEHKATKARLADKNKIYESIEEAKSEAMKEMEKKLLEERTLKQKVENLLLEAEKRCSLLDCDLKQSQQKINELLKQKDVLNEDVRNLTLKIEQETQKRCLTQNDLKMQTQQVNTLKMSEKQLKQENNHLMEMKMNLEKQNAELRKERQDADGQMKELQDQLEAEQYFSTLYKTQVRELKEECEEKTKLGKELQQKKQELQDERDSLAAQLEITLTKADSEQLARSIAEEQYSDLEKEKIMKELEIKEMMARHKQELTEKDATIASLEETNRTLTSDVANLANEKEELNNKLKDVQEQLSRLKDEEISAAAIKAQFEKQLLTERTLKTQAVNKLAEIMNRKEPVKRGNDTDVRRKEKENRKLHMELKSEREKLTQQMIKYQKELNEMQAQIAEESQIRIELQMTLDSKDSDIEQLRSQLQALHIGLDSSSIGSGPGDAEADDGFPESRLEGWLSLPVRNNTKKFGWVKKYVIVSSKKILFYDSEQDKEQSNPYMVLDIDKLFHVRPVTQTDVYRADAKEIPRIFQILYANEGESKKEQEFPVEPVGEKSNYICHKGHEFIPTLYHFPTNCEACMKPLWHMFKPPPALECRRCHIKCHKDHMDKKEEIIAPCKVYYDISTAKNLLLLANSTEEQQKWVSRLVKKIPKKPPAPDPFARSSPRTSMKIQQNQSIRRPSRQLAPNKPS
T1 sequence (Q13464 whole entry, the tested form may be a part): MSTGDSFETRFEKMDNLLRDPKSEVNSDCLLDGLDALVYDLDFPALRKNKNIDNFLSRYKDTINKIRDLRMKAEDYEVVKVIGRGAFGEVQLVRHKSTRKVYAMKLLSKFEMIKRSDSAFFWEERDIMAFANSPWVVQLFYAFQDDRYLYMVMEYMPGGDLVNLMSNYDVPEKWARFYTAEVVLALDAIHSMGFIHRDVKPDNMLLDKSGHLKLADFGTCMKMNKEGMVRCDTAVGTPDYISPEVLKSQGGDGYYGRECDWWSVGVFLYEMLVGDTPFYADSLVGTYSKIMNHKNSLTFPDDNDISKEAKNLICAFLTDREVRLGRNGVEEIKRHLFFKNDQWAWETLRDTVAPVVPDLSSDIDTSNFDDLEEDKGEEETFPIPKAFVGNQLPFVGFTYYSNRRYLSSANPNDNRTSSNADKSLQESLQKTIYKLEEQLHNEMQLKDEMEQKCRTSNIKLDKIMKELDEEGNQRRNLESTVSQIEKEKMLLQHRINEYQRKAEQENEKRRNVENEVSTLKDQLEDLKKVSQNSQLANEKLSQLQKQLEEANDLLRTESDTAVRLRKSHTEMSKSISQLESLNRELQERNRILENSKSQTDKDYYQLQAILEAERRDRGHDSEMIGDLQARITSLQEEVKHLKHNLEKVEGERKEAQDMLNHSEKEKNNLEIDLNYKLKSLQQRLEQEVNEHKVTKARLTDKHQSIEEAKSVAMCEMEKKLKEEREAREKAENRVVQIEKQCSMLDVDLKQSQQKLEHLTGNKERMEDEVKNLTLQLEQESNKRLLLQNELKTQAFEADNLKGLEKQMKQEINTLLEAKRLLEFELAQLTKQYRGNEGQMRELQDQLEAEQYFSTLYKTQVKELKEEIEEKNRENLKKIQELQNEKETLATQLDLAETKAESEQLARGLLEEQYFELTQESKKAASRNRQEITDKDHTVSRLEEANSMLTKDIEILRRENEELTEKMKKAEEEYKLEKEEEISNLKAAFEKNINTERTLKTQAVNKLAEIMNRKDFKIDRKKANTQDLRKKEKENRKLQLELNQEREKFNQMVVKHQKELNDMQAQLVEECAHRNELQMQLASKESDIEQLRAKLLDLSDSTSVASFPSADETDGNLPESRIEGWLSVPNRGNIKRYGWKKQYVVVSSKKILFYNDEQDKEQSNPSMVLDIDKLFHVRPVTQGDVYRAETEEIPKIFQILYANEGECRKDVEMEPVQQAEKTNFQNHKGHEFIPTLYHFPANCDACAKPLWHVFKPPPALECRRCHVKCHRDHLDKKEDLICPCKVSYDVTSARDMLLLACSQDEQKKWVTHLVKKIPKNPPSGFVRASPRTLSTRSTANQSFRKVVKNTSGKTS

Molecule | Kd [6] | Kd [7] | ROCK2 Selectivity [7] | further results
CC(C)NC(=O)COc1cccc(-c2nc(Nc3ccc4[nH]ncc4c3)c3ccccc3n2)c1 [KD025] | – | – | – | hemodynamic or other side effects [1]: no hemodynamic or other side effects; expression of profibrotic mRNA including CTGF [2]: decreased; expression of pro-inflammatory, fibrosis-linked cytokines [3]: decreased; murine autoimmune disease [3]: mitigated
interferon | – | – | – | response to antiviral therapy ([4]; in combination with ribavirin): ~50%; response to antiviral therapy ([4]; used alone): ~20%
CNC(=O)c1cc(Oc2ccc(NC(=O)Nc3ccc(Cl)c(C(F)(F)F)c3)cc2)ccn1 [sorafenib] | – | – | – | extension of median survival [5]: less than 3 months
C(#Cc1ccnc(-c2ccnc(NCc3ccccc3)n2)n1)c1ccc2[nH]ncc2c1 [Ex. 14, 4-((1H-Indazol-5-yl)ethynyl)-N-benzyl-[2,4′-bipyrimidin]-2′-amine] | 1 to 9.9 µM | 0.01 to 0.099 µM | * (<50-fold selectivity for ROCK2) | –
CS(=O)(=O)CCNc1nccc(-c2nccc(C#Cc3ccc4[nH]ncc4c3)n2)n1 [Ex. 56, 4-((1H-Indazol-5-yl)ethynyl)-N-(2-(methylsulfonyl)ethyl)-[2,4′-bipyrimidin]-2′-amine] | 1 to 9.9 µM | < 0.01 µM | **** (>500-fold selectivity for ROCK2) | –
C(#Cc1ccnc(-c2ccnc(NCc3ncc[nH]3)n2)n1)c1ccc2[nH]ncc2c1 [Ex. 23, N-((1H-Imidazol-2-yl)methyl)-4-((1H-indazol-5-yl)ethynyl)-[2,4′-bipyrimidin]-2′-amine] | 1 to 9.9 µM | 0.01 to 0.099 µM | ** (50 to 150-fold selectivity for ROCK2) | –
C(#Cc1ccnc(-c2ccnc(NCc3ccc4c(c3)CNC4)n2)n1)c1ccc2[nH]ncc2c1 [Ex. 20, 4-((1H-Indazol-5-yl)ethynyl)-N-(isoindolin-5-ylmethyl)-[2,4′-bipyrimidin]-2′-amine trifluoroacetate salt] | 0.1 to 0.99 µM | 0.01 to 0.099 µM | * (<50-fold selectivity for ROCK2) | –
Fc1ncccc1CNc1nccc(-c2nccc(C#Cc3ccc4[nH]nc(F)c4c3)n2)n1 [Ex. 43, 4-((3-Fluoro-1H-indazol-5-yl)ethynyl)-N-((2-fluoropyridin-3-yl)methyl)-[2,4′-bipyrimidin]-2′-amine] | 10 to 100 µM | 0.01 to 0.099 µM | *** (151 to 500-fold selectivity for ROCK2) | –
Cc1n[nH]c2ccc(C#Cc3ccnc(-c4ccnc(NCc5ccc(F)cn5)n4)n3)cc12 [Ex. 71, N-((5-Fluoropyridin-2-yl)methyl)-4-((3-methyl-1H-indazol-5-yl)ethynyl)-[2,4′-bipyrimidin]-2′-amine] | 0.1 to 0.99 µM | 0.1 to 0.99 µM | * (<50-fold selectivity for ROCK2) | –
C(#Cc1ccnc(-c2ccnc(NCC3CCCO3)n2)n1)c1ccc2[nH]ncc2c1 (centres unmarked) [Ex. 17, 4-((1H-Indazol-5-yl)ethynyl)-N-((tetrahydrofuran-2-yl)methyl)-[2,4′-bipyrimidin]-2′-amine] | 0.1 to 0.99 µM | < 0.01 µM | *** (151 to 500-fold selectivity for ROCK2) | –
O[C@H]1CC[C@@H](Nc2nccc(-c3nccc(C#Cc4ccc5[nH]nc(F)c5c4)n3)n2)CC1 [Ex. 93, (1s,4s)-4-((4-((3-Fluoro-1H-Indazol-5-yl)ethynyl)-[2,4′-bipyrimidin]-2′-yl)amino)cyclohexanol] | 1 to 9.9 µM | < 0.01 µM | **** (>500-fold selectivity for ROCK2) | TGFβ1-induced gel contraction in hepatic stellate cells [8]: significantly attenuated
C(#Cc1ccnc(-c2ccnc(NC[C@@H]3CCCO3)n2)n1)c1ccc2[nH]ncc2c1 [Ex. 35, (S)-4-((1H-Indazol-5-yl)ethynyl)-N-((tetrahydrofuran-2-yl)methyl)-[2,4′-bipyrimidin]-2′-amine] | 0.1 to 0.99 µM | < 0.01 µM | *** (151 to 500-fold selectivity for ROCK2) | –
Fc1cccc(CNc2nccc(-c3nccc(C#Cc4ccc5[nH]ncc5c4)n3)n2)c1F [Ex. 26, 4-((1H-Indazol-5-yl)ethynyl)-N-(2,3-difluorobenzyl)-[2,4′-bipyrimidin]-2′-amine] | 1 to 9.9 µM | 0.01 to 0.099 µM | ** (50 to 150-fold selectivity for ROCK2) | –
C(#Cc1ccnc(-c2ccnc(NCC3CCCCO3)n2)n1)c1ccc2[nH]ncc2c1 (centres unmarked) [Ex. 76, 4-((1H-Indazol-5-yl)ethynyl)-N-((tetrahydro-2H-pyran-2-yl)methyl)-[2,4′-bipyrimidin]-2′-amine] | 1 to 9.9 µM | < 0.01 µM | *** (151 to 500-fold selectivity for ROCK2) | –
CN(C)C(=O)CNc1nccc(-c2nccc(C#Cc3ccc4[nH]ncc4c3)n2)n1 [Ex. 19, 2-((4-((1H-Indazol-5-yl)ethynyl)-[2,4′-bipyrimidin]-2′-yl)amino)-N,N-dimethylacetamide] | 0.1 to 0.99 µM | 0.01 to 0.099 µM | ** (50 to 150-fold selectivity for ROCK2) | –
Fc1cc(CNc2nccc(-c3nccc(C#Cc4ccc5[nH]nc(F)c5c4)n3)n2)ccn1 [Ex. 61, 4-((3-Fluoro-1H-indazol-5-yl)ethynyl)-N-((2-fluoropyridin-4-yl)methyl)-[2,4′-bipyrimidin]-2′-amine] | 10 to 100 µM | 0.01 to 0.099 µM | *** (151 to 500-fold selectivity for ROCK2) | –
CC1(O)CN(C(=O)CNc2nccc(-c3nccc(C#Cc4ccc5[nH]ncc5c4)n3)n2)C1 [Ex. 84, 2-((4-((1H-Indazol-5-yl)ethynyl)-[2,4′-bipyrimidin]-2′-yl)amino)-1-(3-hydroxy-3-methylazetidin-1-yl)ethanone] | 1 to 9.9 µM | 0.01 to 0.099 µM | * (<50-fold selectivity for ROCK2) | –
O[C@H]1CC[C@@H](Nc2nccc(-c3nccc(C#Cc4ccc5[nH]nc(F)c5c4)n3)n2)C1 [Ex. 94, (1S,3R)-3-((4-((3-Fluoro-1H-Indazol-5-yl)ethynyl)-[2,4′-bipyrimidin]-2′-yl)amino)cyclopentanol] | 1 to 9.9 µM | < 0.01 µM | **** (>500-fold selectivity for ROCK2) | –
C(#Cc1ccnc(-c2ccnc(N[C@H]3CCOC3)n2)n1)c1ccc2[nH]ncc2c1 [Ex. 62, (S)-4-((1H-Indazol-5-yl)ethynyl)-N-(tetrahydrofuran-3-yl)-[2,4′-bipyrimidin]-2′-amine] | 1 to 9.9 µM | < 0.01 µM | *** (151 to 500-fold selectivity for ROCK2) | –
O=C(CNc1nccc(-c2nccc(C#Cc3ccc4[nH]ncc4c3)n2)n1)NC12CCC(CC1)C2 [Ex. 2, 2-((4-((1H-Indazol-5-yl)ethynyl)-[2,4′-bipyrimidin]-2′-yl)amino)-N-(bicyclo[2.2.1]heptan-1-yl)acetamide] | 0.1 to 0.99 µM | < 0.01 µM | *** (151 to 500-fold selectivity for ROCK2) | –
Cc1ccc(CNc2nccc(-c3nccc(C#Cc4ccc5[nH]ncc5c4)n3)n2)nc1 [Ex. 24, 4-((1H-Indazol-5-yl)ethynyl)-N-((5-methylpyridin-2-yl)methyl)-[2,4′-bipyrimidin]-2′-amine] | 0.1 to 0.99 µM | < 0.01 µM | ** (50 to 150-fold selectivity for ROCK2) | –
Cc1ccnc(F)c1CNc1nccc(-c2nccc(C#Cc3ccc4[nH]ncc4c3)n2)n1 [Ex. 70, 4-((1H-Indazol-5-yl)ethynyl)-N-((2-fluoro-4-methylpyridin-3-yl)methyl)-[2,4′-bipyrimidin]-2′-amine] | 10 to 100 µM | 0.01 to 0.099 µM | **** (>500-fold selectivity for ROCK2) | –
O[C@H]1CC[C@H](Nc2nccc(-c3nccc(C#Cc4ccc5[nH]ncc5c4)n3)n2)CC1 [Ex. 63, (1r,4r)-4-((4-((1H-Indazol-5-yl)ethynyl)-[2,4′-bipyrimidin]-2′-yl)amino)cyclohexanol] | 1 to 9.9 µM | < 0.01 µM | *** (151 to 500-fold selectivity for ROCK2) | –
Fc1ccnc(CNc2nccc(-c3nccc(C#Cc4ccc5[nH]ncc5c4)n3)n2)c1 [Ex. 10, 4-((1H-Indazol-5-yl)ethynyl)-N-((4-fluoropyridin-2-yl)methyl)-[2,4′-bipyrimidin]-2′-amine] | 1 to 9.9 µM | 0.01 to 0.099 µM | ** (50 to 150-fold selectivity for ROCK2) | –
O=S1(=O)CC[C@@H](Nc2nccc(-c3nccc(C#Cc4ccc5[nH]ncc5c4)n3)n2)C1 [Ex. 88, (R)-3-((4-((1H-Indazol-5-yl)ethynyl)-[2,4′-bipyrimidin]-2′-yl)amino)tetrahydrothiophene 1,1-dioxide] | 0.1 to 0.99 µM | 0.01 to 0.099 µM | * (<50-fold selectivity for ROCK2) | –
Fc1nccc(Cl)c1CNc1nccc(-c2nccc(C#Cc3ccc4[nH]ncc4c3)n2)n1 [Ex. 64, 4-((1H-Indazol-5-yl)ethynyl)-N-((4-chloro-2-fluoropyridin-3-yl)methyl)-[2,4′-bipyrimidin]-2′-amine] | 0.1 to 0.99 µM | 0.01 to 0.099 µM | * (<50-fold selectivity for ROCK2) | –
